Results from patent US12036222B2, “Methods of treating cancers overexpressing CARM1 with EZH2 inhibitors and a PARP inhibitor” (The Wistar Institut of Anatomy and Biology, priority 2018, dated 2024).
Entries after “also recorded” stand apart in the source; their conditions may differ.

What was measured:
[1] = molecular target: T1, PRC2 subunits EZH2 and SUZ12 interaction (Homo sapiens, UniProt Q15910); assay: Immunoprecipitation of EZH2 and immunoblot for SUZ12; type: cell-based; details: A1847 cells, 10 μM GSK126, 7 days
T1 construct: endogenous in cells; host or cells: A1847 cells (CARM1-high)
T1 sequence (Q15910 whole entry): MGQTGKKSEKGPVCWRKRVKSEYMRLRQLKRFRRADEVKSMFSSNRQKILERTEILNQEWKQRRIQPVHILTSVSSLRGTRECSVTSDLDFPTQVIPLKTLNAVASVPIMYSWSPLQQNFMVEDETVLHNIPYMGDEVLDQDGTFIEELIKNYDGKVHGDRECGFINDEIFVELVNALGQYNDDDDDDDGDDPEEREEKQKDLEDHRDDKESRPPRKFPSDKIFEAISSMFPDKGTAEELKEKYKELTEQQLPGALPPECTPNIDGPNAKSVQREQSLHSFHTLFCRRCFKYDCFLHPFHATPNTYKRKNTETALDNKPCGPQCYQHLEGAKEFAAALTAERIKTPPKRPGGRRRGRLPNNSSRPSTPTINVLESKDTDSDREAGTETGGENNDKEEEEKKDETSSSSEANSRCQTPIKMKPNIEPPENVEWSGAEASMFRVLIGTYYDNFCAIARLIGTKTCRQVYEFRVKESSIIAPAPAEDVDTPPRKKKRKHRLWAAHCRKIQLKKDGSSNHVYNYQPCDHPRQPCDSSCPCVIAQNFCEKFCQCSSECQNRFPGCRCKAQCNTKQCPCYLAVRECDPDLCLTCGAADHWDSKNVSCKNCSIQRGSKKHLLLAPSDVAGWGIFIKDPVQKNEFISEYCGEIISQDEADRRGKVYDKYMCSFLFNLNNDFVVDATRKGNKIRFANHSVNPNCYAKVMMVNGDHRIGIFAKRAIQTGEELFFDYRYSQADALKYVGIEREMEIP
T1 sequence (Q15022 whole entry partner): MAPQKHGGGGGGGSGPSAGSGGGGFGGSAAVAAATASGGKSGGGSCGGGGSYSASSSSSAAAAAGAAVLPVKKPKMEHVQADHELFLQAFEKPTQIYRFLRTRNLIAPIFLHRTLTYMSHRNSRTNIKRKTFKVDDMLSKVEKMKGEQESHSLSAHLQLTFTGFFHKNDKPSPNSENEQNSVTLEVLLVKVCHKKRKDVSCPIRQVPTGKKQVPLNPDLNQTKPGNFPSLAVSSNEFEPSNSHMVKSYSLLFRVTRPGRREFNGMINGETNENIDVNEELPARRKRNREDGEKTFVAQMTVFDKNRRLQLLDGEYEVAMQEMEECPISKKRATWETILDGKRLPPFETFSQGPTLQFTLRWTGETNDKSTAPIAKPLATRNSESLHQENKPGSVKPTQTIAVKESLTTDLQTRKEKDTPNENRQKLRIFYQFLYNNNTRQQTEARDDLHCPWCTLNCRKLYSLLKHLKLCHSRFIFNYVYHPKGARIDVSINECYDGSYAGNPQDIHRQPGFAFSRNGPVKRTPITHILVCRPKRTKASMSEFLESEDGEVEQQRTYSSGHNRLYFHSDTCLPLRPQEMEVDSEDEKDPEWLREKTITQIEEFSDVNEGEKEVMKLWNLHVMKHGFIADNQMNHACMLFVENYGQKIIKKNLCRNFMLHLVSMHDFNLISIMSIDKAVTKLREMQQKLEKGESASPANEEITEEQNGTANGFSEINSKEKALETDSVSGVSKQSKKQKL
T1 sequence (O75530 whole entry partner): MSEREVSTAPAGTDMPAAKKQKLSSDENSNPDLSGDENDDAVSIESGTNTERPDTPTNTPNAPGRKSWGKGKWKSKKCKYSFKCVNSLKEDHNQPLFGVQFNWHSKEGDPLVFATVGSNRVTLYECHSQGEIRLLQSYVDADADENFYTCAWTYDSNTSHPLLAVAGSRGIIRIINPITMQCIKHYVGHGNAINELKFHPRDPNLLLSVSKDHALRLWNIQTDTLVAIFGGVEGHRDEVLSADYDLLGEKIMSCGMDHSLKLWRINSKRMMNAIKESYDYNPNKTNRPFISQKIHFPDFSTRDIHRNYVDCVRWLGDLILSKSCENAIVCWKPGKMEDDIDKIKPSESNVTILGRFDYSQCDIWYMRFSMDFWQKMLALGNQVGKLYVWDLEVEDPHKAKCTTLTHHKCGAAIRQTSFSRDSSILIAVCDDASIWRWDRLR
Procedure: A1847 cells were treated with 10 μM GSK126 or vehicle control for 7 days. The cells were subjected to immunoprecipitation (IP) analysis by using an anti-EZH2 antibody. The immunoprecipitated product was examined for EZH2 and SUZ12 expression by immunoblot. An isotype-matched IgG was used as a control.

[2] = test system: CARM1-low EOC cells such as CAOV3 and PEO1; assay: Colony formation assay in CARM1-low EOC cells; type: cell-based, human; details: 10 μM GSK126
Procedure: FIG. 33 illustrates relative growth of the indicated HOSE, FTE, and EOC cancer cell lines with high or low CARM1 expression treated with 10 μM GSK126 or vehicle in a colony formation assay as determined by NIH Image J quantification.
500 to 5,000 cell were plated into a 24 well tissue culture plate and treated with the indicated compounds. Medium was changed every three days with appropriate drug doses for 12 days or until control wells became confluent. Colonies were washed twice with PBS and fixed with 10% methanol and 10% acetic acid in distilled water. Fixed colonies were stained with 0.005% crystal violet. Integrated density was measured using NIH ImageJ software.

CARM1-expressing tumors = assay: Immunohistochemistry and qRT-PCR of dissected CARM1-expressing tumors; type: in vivo, mice
Procedure: FIG. 79 illustrates immunohistochemical analysis for serial sections of tumors dissected from the indicated treatment groups where the tumor sections were stained for H3K27Me3, EZH2, cleaved caspase 3, and Ki67. Scale bar=50 μm.
FIG. 80 illustrates histological scoring (H-score) of the indicated proteins that was calculated for 3 separate fields from 5 tumors from 5 individual mice from each of the indicated groups.
FIG. 81 illustrates the expression of the indicated EZH2/BAF155 target genes that was determined by qRT-PCR in the tumors dissected from the indicated treatment groups.
The observed tumor growth suppression in vivo was correlated with the molecular pathways underlying the CARM1-dependent effects of EZH2 inhibition. To do so, immunohistochemical (IHC) analysis was performed for markers of cell proliferation (Ki67), apoptosis (cleaved caspase 3), H3K27Me3 and EZH2. […] Finally, the observed decrease in cell proliferation and increase in apoptosis correlated with the upregulation of the identified CARM1-regulated EZH2/BAF155 target genes such as DAB2, DLC1 and NOXA by the EZH2 inhibitor GSK126 in vivo (FIG. 81).

TIMP3 promoter = assay: ChIP-qPCR at TIMP3 promoter; type: cell-based, human; details: A1847 cells, 10 μM GSK126
Procedure: FIGS. 62 to 65 illustrate the results of a ChIP analysis in parental control and CARM1 knockout A1847 cells treated with 10 μM GSK126 or vehicle controls. The cells were subjected to ChIP analysis using anti-EZH2 (FIG. 62), anti-H3K27Me3 (FIG. 63), anti-BAF155 (FIG. 64), or anti-RNA Pol II (FIG. 65) antibodies. An isotype-matched IgG was used as a negative control. ChIP products were subjected to qPCR analysis using primers specific for the promoter regions of the human TIMP3 genes. Mean of three independent experiments with SEM.* p<0.001 compared with controls.
ChIP was performed as described in Tu et al. Developmental Cell(2011) 21:1077-91. The following antibodies were used to perform ChIP: anti-H3K27Me3 (Cell Signaling, Cat. No: 9733), anti-BAF155 (Santa Cruz, Cat. No: sc-9746), anti-RNA polymerase II (Santa Cruz, Cat. No: sc-899) or anti-EZH2 (Cell Signaling, Cat. No: 5246). An isotype matched IgG was used as a negative control. ChIP DNA was analyzed by quantitative PCR against the promoter of the indicated genes using the following primers: DAB2 Forward: 5′-[…]-3′ (SEQ ID NO: 10) and DAB2 Reverse: 5′-[…]-3′ (SEQ ID NO: 11); DLC1 Forward: 5′-[…]-3′ (SEQ ID NO: 12) and DLC1 Reverse: 5′-[…]-3′ (SEQ ID NO: 13); NOXA Forward: 5′-[…]-3′ (SEQ ID NO: 14) and NOXA Reverse: 5′-[…]-3′ (SEQ ID NO: 15); TIMP3 Forward: 5′-[…]-3′ (SEQ ID NO: 16) and TIMP3 Reverse: 5′-[…]-3′ (SEQ ID NO: 17).

[3] = test system: A1847 parental and CARM1 knockout cells; assay: Epigenetic targeting small molecule set screen (14-day colony formation); type: cell-based, human; details: 14 days, normalized to vehicle
Procedure: FIG. 26 illustrates that CARM1-expressing cells are selectively sensitized to EZH2 inhibitors. Equal number of parental control or CARM1 knockout […] cells were plated and treated with each of the 23 individual epigenetic inhibitors for 14 days. The media with the inhibitors was refreshed every 3 days. Cell growth was quantified as integrated density using NIH Image J software. Quantification of the average integrated density graphed as a scatter plot. The X-axis indicates the relative growth of treated CARM1 high parental […] cells compared with DMSO vehicle controls. Y-axis indicates the relative growth of treated CARM1 knockout […] cells compared with DMSO vehicle controls. n=4; and error bars represents SEM. FIG. 27 illustrates a table of EZH2 inhibitors that are selective against CARM1 expression. CARM1-high parental controls and CARM1 knockout […] cells were treated with the indicated concentration of the small molecules in a 14-day colony formation assay. Integrated density for each well was calculated using NIH Image J software. The relative growth of the indicated cells was determined by normalizing to the vehicle control treated cells. n=4 and p-value was calculated using a two-tailed t-test. […] parental and CARM1 knockout cells were plated in 24-well plates and treated with 24 epigenetic compounds. Cell medium was changed every three days with appropriate drug doses for 14 days or until control wells became confluent. Colonies were washed twice with PBS and fixed with 10% methanol and 10% acetic acid in distilled water. Fixed colonies were stained with 0.005% crystal violet. Integrated density was measured using NIH ImageJ software as a surrogate for cell growth.

EZH2 = molecular target: T2, EZH2 (Homo sapiens, UniProt Q15910); assay: Immunoblot of A1847 cells treated with GSK126 (H3K27Me3 as readout of EZH2 activity); type: cell-based; design: inhibition of the enzymatic activity of EZH2 as indicated by the decrease in H3K27Me3 levels: dose or concentration left out as unconfirmed; details: 72 hours
T2 construct: endogenous in cells; host or cells: A1847 cells (CARM1-high epithelial ovarian cancer line)
T2 sequence (Q15910 whole entry): as the sequence (Q15910 whole entry) above
T2 sequence (Q15022 whole entry partner): as the sequence (Q15022 whole entry partner) above
T2 sequence (O75530 whole entry partner): as the sequence (O75530 whole entry partner) above
Procedure: FIG. 32 illustrates that the EZH2 inhibitor GSK126 decreases H3K27Me3 levels in a dose-dependent manner. A1847 cells were treated with the indicated concentrations of GSK126 for 72 hours and examined for expression of the indicated proteins by immunoblot. Expression of histone H3 and 3-actin was used as a loading control.

With `CC[C@H](C)n1cc(C)c2c(C(=O)NCc3c(C)cc(C)[nH]c3=O)cc(-c3ccc(N4CCNCC4)nc3)cc21` [GSK126, (S)-1-(sec-butyl)-N-((4,6-dimethyl-2-oxo-1,2-dihydropyridin-3-yl)methyl)-3-methyl-6-(6-(piperazin-1-yl)pyridin-3-yl)-1H-indole-4-carboxamide] the “interaction between PRC2 subunits EZH2 and SUZ12” value [1] was “did not weaken the interaction”, the “response of CARM1-low EOC cells” value [2] was “did not respond” and the EZH2 staining (CARM1-expressing tumors; IHC) was “did not affect EZH2 staining”. The H3K27Me3 staining (CARM1-expressing tumors; IHC) was “decreased”, the “expression of Ki67” value (CARM1-expressing tumors; IHC) was “decreased the expression of Ki67” and the “expression of cleaved caspase 3” value (CARM1-expressing tumors; IHC) was “increased the expression of cleaved caspase 3”. The “expression of EZH2/BAF155 target genes DAB2, DLC1 and NOXA in vivo” value (CARM1-expressing tumors; qRT-PCR) was “upregulation”, the “association of BAF155 and Pol II with the TIMP3 promoter” value (TIMP3 promoter) was “CARM1 KO but not EZH2 inhibitor GSK126 treatment decreased the association” and the “selective growth suppression of CARM1-expressing vs CARM1 KO cells” value [3] was “showed selectivity against CARM1-expressing cells; also recorded: selectively sensitive”. The EZH2 protein levels (EZH2) was “did not affect EZH2 protein levels”, the “expression of CARM1” value (EZH2) was “did not affect the expression of CARM1” and the “inhibition of the enzymatic activity of EZH2 as indicated by the decrease in H3K27Me3 levels” value (EZH2) was greater than 95%. The H3K27Me3 levels (EZH2; indicated concentrations) was “dose-dependent decrease in H3K27Me3 levels”.
